Results as given in patent US20220227737A1, “NOVEL OXALYL PIPERAZINES ACTIVE AGAINST THE HEPATITIS B VIRUS (HBV)” (AiCuris GmbH & Co. KG, priority 2019, published 2022).

Legend:
[1] = molecular target: T1, C-terminal truncated core protein (HBV core dimer, BODIPY-FL labelled) (UniProt P03146); test: Biochemical capsid assembly assay (fluorescence quenching)
T1 construct: fused on or other part: One added cysteine at position 150, labelled with BODIPY-FL maleimide; The C-terminal arginine-rich domain is absent
T1 sequence (P03146 whole entry, the tested form may be a part): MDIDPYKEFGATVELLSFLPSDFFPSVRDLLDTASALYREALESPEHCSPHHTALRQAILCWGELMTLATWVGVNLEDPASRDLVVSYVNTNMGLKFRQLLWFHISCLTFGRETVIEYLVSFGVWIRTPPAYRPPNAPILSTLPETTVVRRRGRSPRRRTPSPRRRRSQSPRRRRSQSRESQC
Method: Biochemical Capsid Assembly Assay
The screening for assembly effector activity was done based on a fluorescence quenching assay published by Zlotnick et al. (2007). The C-terminal truncated core protein containing 149 amino acids of the N-terminal assembly domain fused to a unique cysteine residue at position 150 and was expressed in E. coli using the pET expression system (Merck Chemicals, Darmstadt). Purification of core dimer protein was performed using a sequence of size exclusion chromatography steps. In brief, the cell pellet from 1 L BL21 (DE3) Rosetta2 culture expressing the coding sequence of core protein cloned NdeI/XhoI into expression plasmid pET21b was treated for 1 h on ice with a native lysis buffer (Qproteome Bacterial Protein Prep Kit; Qiagen, Hilden). After a centrifugation step the supernatant was precipitated during 2 h stirring on ice with 0.23 g/ml of solid ammonium sulfate. Following further centrifugation the resulting pellet was resolved in buffer A (100 mM Tris, pH 7.5; 100 mM NaCl; 2 mM DTT) and was subsequently loaded onto a buffer A equilibrated CaptoCore 700 column (GE HealthCare, Frankfurt). The column flow through containing the assembled HBV capsid was dialyzed against buffer N (50 mM NaHCO3 pH 9.6; 5 mM DTT) before urea was added to a final concentration of 3M to dissociate the capsid into core dimers for 1.5 h on ice. The protein solution was then loaded onto a 1 L Sephacryl 5300 column. After elution with buffer N core dimer containing fractions were identified by SDS-PAGE and subsequently pooled and dialyzed against 50 mM HEPES pH 7.5; 5 mM DTT. To improve the assembly capacity of the purified core dimers a second round of assembly and disassembly starting with the addition of 5 M NaCl and including the size exclusion chromatography steps described above was performed. From the last chromatography step core dimer containing fractions were pooled and stored in aliquots at concentrations between 1.5 to 2.0 mg/ml at −80° C.
Immediately before labelling the core protein was reduced by adding freshly prepared DTT in a final concentration of 20 mM. After 40 min incubation on ice storage buffer and DTT was removed using a Sephadex G-25 column (GE HealthCare, Frankfurt) and 50 mM HEPES, pH 7.5. For labelling 1.6 mg/ml core protein was incubated at 4° C. and darkness overnight with BODIPY-FL maleimide (Invitrogen, Karlsruhe) in a final concentration of 1 mM. After labelling the free dye was removed by an additional desalting step using a Sephadex G-25 column. Labelled core dimers were stored in aliquots at 4° C. In the dimeric state the fluorescence signal of the labelled core protein is high and is quenched during the assembly of the core dimers to high molecular capsid structures. The screening assay was performed in black 384 well microtiter plates in a total assay volume of 10 μl using 50 mM HEPES pH 7.5 and 1.0 to 2.0 μM labelled core protein. Each screening compound was added in 8 different concentrations using a 0.5 log-unit serial dilution starting at a final concentration of 100 μM, 31.6 μM or 10 μM, In any case the DMSO concentration over the entire microtiter plate was 0.5%. The assembly reaction was started by the injection of NaCl to a final concentration of […] which induces the assembly process to approximately 25% of the maximal quenched signal. […] after starting the reaction the fluorescence signal was measured using a Clariostar plate reader (BMG Labtech, Ortenberg) with an excitation of 477 nm and an emission of 525 nm. As 100% and 0% assembly control HEPES buffer containing 2.5 M and 0 M NaCl was used. Experiments were performed thrice in triplicates. EC50 values were calculated by non-linear regression analysis using the Graph Pad Prism 6 software (GraphPad Software, La Jolla, USA).

[2] = test system: HBV; test: HBV replication assay: HBV DNA from the supernatants of HepAD38 cells; format: cell-based; conditions: Hepatitis B virus, 144 h, HBV DNA in supernatant at day 6, read-out: Cell Activity
Method: Determination of HBV DNA from the Supernatants of HepAD38 Cells
The anti-HBV activity was analysed in the stable transfected cell line HepAD38, which has been described to secrete high levels of HBV virion particles (Ladner et al., 1997). In brief, HepAD38 cells were cultured at 37° C. at 5% CO2 and 95% humidity in 200 μl maintenance medium, which was Dulbecco's modified Eagle's medium/Nutrient Mixture F-12 (Gibco, Karlsruhe), 10% fetal bovine serum (PAN Biotech Aidenbach) supplemented with 50 μg/ml penicillin/streptomycin (Gibco, Karlsruhe), 2 mM L-glutamine (PAN Biotech, Aidenbach), 400 μg/ml G418 (AppliChem, Darmstadt) and 0.3 μg/ml tetracycline. Cells were subcultured once a week in a 1:5 ratio, but were usually not passaged more than ten times. For the assay 60,000 cells were seeded in maintenance medium without any tetracycline into each well of a 96-well plate and treated with serial half-log dilutions of test compound. To minimize edge effects the outer 36 wells of the plate were not used but were filled with assay medium. On each assay plate six wells for the virus control (untreated HepAD38 cells) and six wells for the cell control (HepAD38 cells treated with 0.3 μg/ml tetracycline) were allocated, respectively. In addition, one plate set with reference inhibitors like BAY 41-4109, entecavir, and lamivudine instead of screening compounds were prepared in each experiment. In general, experiments were performed thrice in triplicates. At day 6 HBV DNA from 100 μl filtrated cell culture supernatant (AcroPrep Advance 96 Filter Plate, […] Supor membran, PALL GmbH, Dreieich) was automatically purified on the MagNa Pure LC instrument using the MagNA Pure 96 DNA and Viral NA Small Volume Kit (Roche Diagnostics, Mannheim) according to the instructions of the manufacturer. EC50 values were calculated from relative copy numbers of HBV DNA In brief, 5 μl of the 100 μl eluate containing HBV DNA were subjected to PCR LC480 Probes Master Kit (Roche) together with 1 μM antisense primer […], 0.5 μM sense primer […], 0.3 μM hybprobes […]-FL and LC640-[…]-PH (TIBMolBiol, Berlin) to a final volume of […]. The PCR was performed on the Light Cycler 480 real time system (Roche Diagnostics, Mannheim) using the following protocol: Pre-incubation for 1 min at 95° C., amplification: 40 cycles×(10 sec at 95° C., 50 sec at 60° C., 1 sec at 70° C.), cooling for 10 sec at 40° C. Viral load was quantitated against known standards using HBV plasmid DNA of pCH-9/3091 (Nassal et al., 1990, Cell 63: 1357-1363) and the LightCycler 480 SW 1.5 software (Roche Diagnostics, Mannheim) and EC50 values were calculated using non-linear regression with GraphPad Prism 6 (GraphPad Software Inc., La Jolla, USA).

[3] = Cell viability assay (AlamarBlue); conditions: human, HepAD38 cells

SMILES	IC50 [1] [µM]	EC50 [2] [µM]	CC50 at 6 days [3] [µM]
CCCCNC(=O)C(=O)N1CCN(C(=O)c2cc3c(F)cc(F)cc3[nH]2)CC1 [Example 9, N-butyl-2-(4-(4,6-difluoro-1H-indole-2-carbonyl)piperazin-1-yl)-2-oxoacetamide]	< 5	< 1	> 100
C[C@@H](O)CNC(=O)C(=O)N1CCN(C(=O)c2cc3c(F)cc(F)cc3[nH]2)CC1 [Example 64, (R)-2-(4-(4,6-difluoro-1H-indole-2-carbonyl)piperazin-1-yl)-N-(2-hydroxypropyl)-2-oxoacetamide]	< 5	< 1	> 100
COC(C)CNC(=O)C(=O)N1CCN(C(=O)c2cc3c(F)cc(F)cc3[nH]2)CC1 (stereo not drawn) [Example 63, 2-(4-(4,6-difluoro-1H-indole-2-carbonyl)piperazin-1-yl)-N-(2-methoxypropyl)-2-oxoacetamide]	< 5	< 1	> 100
CCC(CCO)CNC(=O)C(=O)N1CCN(C(=O)c2cc3c(F)cc(F)cc3[nH]2)CC1 (stereo not drawn) [Example 59, 2-(4-(4,6-difluoro-1H-indole-2-carbonyl)piperazin-1-yl)-N-(2-ethyl-4-hydroxybutyl)-2-oxoacetamide]	< 5	< 1	> 100
CC(C)(O)CNC(=O)C(=O)N1CCN(C(=O)c2cc3ccccc3[nH]2)CC1 [Example 32, 2-(4-(1H-indole-2-carbonyl)piperazin-1-yl)-N-(2-hydroxy-2-methylpropyl)-2-oxoacetamide]	< 5	< 1	> 100
CCCCNC(=O)C(=O)N1CCN(C(=O)c2cc3c(F)cccc3[nH]2)CC1 [Example 26, N-butyl-2-(4-(4-fluoro-1H-indole-2-carbonyl)piperazin-1-yl)-2-oxoacetamide]	< 5	< 1	> 100
CC(O)CNC(=O)C(=O)N1CCN(C(=O)c2cc3ccccc3[nH]2)CC1 (stereo not drawn) [Example 28, 2-(4-(1H-indole-2-carbonyl)piperazin-1-yl)-N-(2-hydroxypropyl)-2-oxoacetamide]	< 5	< 1	> 100
CC(C)(CCO)CNC(=O)C(=O)N1CCN(C(=O)c2cc3c(F)cc(F)cc3[nH]2)CC1 [Example 61, 2-(4-(4,6-difluoro-1H-indole-2-carbonyl)piperazin-1-yl)-N-(4-hydroxy-2,2-dimethylbutyl)-2-oxoacetamide]	< 5	< 1	> 100
CCCCNC(=O)C(=O)N1CCN(C(=O)c2cc3cccc(Br)c3[nH]2)CC1 [Example 5, 2-[4-(7-bromo-1H-indole-2-carbonyl)piperazin-1-yl]-N-butyl-2-oxoacetamide]	< 5	< 1	> 100
O=C(NCCCCO)C(=O)N1CCN(C(=O)c2cc3ccccc3[nH]2)CC1 [Example 29, 2-(4-(1H-indole-2-carbonyl)piperazin-1-yl)-N-(4-hydroxybutyl)-2-oxoacetamide]	< 5	1 to 10	> 100
O=C(NCC1(CO)CC1)C(=O)N1CCN(C(=O)c2cc3ccccc3[nH]2)CC1 [Example 31, 2-(4-(1H-indole-2-carbonyl)piperazin-1-yl)-N-((1-(hydroxymethyl)cyclopropyl)methyl)-2-oxoacetamide]	5 to 10	< 1	> 100
C[C@H](O)CNC(=O)C(=O)N1CCN(C(=O)c2cc3c(F)cc(F)cc3[nH]2)CC1 [Example 58, (S)-2-(4-(4,6-difluoro-1H-indole-2-carbonyl)piperazin-1-yl)-N-(2-hydroxypropyl)-2-oxoacetamide]	< 5	< 1	> 100
CC1(CNC(=O)C(=O)N2CCN(C(=O)c3cc4ccccc4[nH]3)CC2)CCOC1 (stereo not drawn) [Example 12, 2-[4-(1H-indole-2-carbonyl)piperazin-1-yl]-N-[(3-methyloxolan-3-yl)methyl]-2-oxoacetamide]	< 5	< 1	> 100
O=C(NCCCCCO)C(=O)N1CCN(C(=O)c2cc3c(F)cc(F)cc3[nH]2)CC1 [Example 57, 2-(4-(4,6-difluoro-1H-indole-2-carbonyl)piperazin-1-yl)-N-(5-hydroxypentyl)-2-oxoacetamide]	< 5	1 to 10	> 100
O=C(Nc1cccc(Br)c1)C(=O)N1CCN(C(=O)c2cc3ccccc3[nH]2)CC1 [Example 1, N-(3-bromophenyl)-2-[4-(1H-indole-2-carbonyl)piperazin-1-yl]-2-oxoacetamide]		1 to 10	
CCCCNC(=O)C(=O)N1CCN(C(=O)c2cc3cccc(C)c3[nH]2)CC1 [Example 24, N-butyl-2-(4-(7-methyl-1H-indole-2-carbonyl)piperazin-1-yl)-2-oxoacetamide]		< 1	> 100
O=C(N[C@H]1CC[C@H](O)CC1)C(=O)N1CCN(C(=O)c2cc3ccccc3[nH]2)CC1 [Example 33, 2-(4-(1H-indole-2-carbonyl)piperazin-1-yl)-N-((1r,4r)-4-hydroxycyclohexyl)-2-oxoacetamide]	< 100		
O=C(NC1CCOCC1)C(=O)N1CCN(C(=O)c2cc3ccccc3[nH]2)CC1 [Example 40, 2-(4-(1H-indole-2-carbonyl)piperazin-1-yl)-2-oxo-N-(tetrahydro-2H-pyran-4-yl)acetamide]	5 to 10		
CC(C)(C)NC(=O)C(=O)N1CCCN(C(=O)c2cc3ccccc3[nH]2)CC1 [Example 51, 2-(4-(1H-indole-2-carbonyl)-1,4-diazepan-1-yl)-N-(tert-butyl)-2-oxoacetamide]	< 100		
